PubChem BioAssay (NCI)
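Assay format: 96-well plates, 48-hour exposure. Definition used: TGI = concentration required for complete inhibition of growth.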

Experiments:
Test in all cases: inhibition of tumour cell growth, NCI panel, 48 h
SK-MEL-2 melanoma = system: SK-MEL-2 melanoma
CAKI-1 renal = system: CAKI-1 renal
DU-145 prostate = system: DU-145 prostate
NCI/ADR-RES ovarian = system: NCI/ADR-RES ovarian
HCT-116 colon = system: HCT-116 colon
UO-31 renal = system: UO-31 renal
OVCAR-4 ovarian = system: OVCAR-4 ovarian
SK-MEL-28 melanoma = system: SK-MEL-28 melanoma
IGROV1 ovarian = system: IGROV1 ovarian
U251 CNS = system: U251 CNS
HS 578T breast = system: HS 578T breast
LOX IMVI melanoma = system: LOX IMVI melanoma
SF-295 CNS = system: SF-295 CNS
HOP-92 NSCLC = system: HOP-92 NSCLC
M14 melanoma = system: M14 melanoma
ACHN renal = system: ACHN renal
BT-549 breast = system: BT-549 breast
T-47D breast = system: T-47D breast
K-562 leukemia = system: K-562 leukemia
A549 NSCLC = system: A549 NSCLC
MOLT-4 leukemia = system: MOLT-4 leukemia
MDA-MB-435 = system: MDA-MB-435
SK-MEL-5 melanoma = system: SK-MEL-5 melanoma
SR leukemia = system: SR leukemia
MCF7 breast = system: MCF7 breast
MDA-MB-231 breast = system: MDA-MB-231 breast
NCI-H522 lung = system: NCI-H522 lung
UACC-257 melanoma = system: UACC-257 melanoma
KM12 colon = system: KM12 colon
HCC-2998 colon = system: HCC-2998 colon
RXF 393 renal = system: RXF 393 renal
A498 renal = system: A498 renal
SF-268 CNS = system: SF-268 CNS
SW-620 colon = system: SW-620 colon
OVCAR-5 ovarian = system: OVCAR-5 ovarian
TK-10 renal = system: TK-10 renal
HOP-62 NSCLC = system: HOP-62 NSCLC
UACC-62 melanoma = system: UACC-62 melanoma
SN12C renal = system: SN12C renal
HT29 colon = system: HT29 colon
786-0 renal = system: 786-0 renal
HCT-15 colon = system: HCT-15 colon
OVCAR-3 ovarian = system: OVCAR-3 ovarian
SNB-19 CNS = system: SNB-19 CNS
CCRF-CEM leukemia = system: CCRF-CEM leukemia
EKVX NSCLC = system: EKVX NSCLC
SF-539 CNS = system: SF-539 CNS
NCI-H460 lung = system: NCI-H460 lung
MDA-N = system: MDA-N
OVCAR-8 ovarian = system: OVCAR-8 ovarian
NCI-H23 lung = system: NCI-H23 lung
HL-60(TB) leukemia = system: HL-60(TB) leukemia
PC-3 prostate = system: PC-3 prostate
COLO 205 colon = system: COLO 205 colon
NCI-H226 lung = system: NCI-H226 lung
SK-OV-3 ovarian = system: SK-OV-3 ovarian
RPMI-8226 leukemia = system: RPMI-8226 leukemia
MALME-3M melanoma = system: MALME-3M melanoma
SNB-75 CNS = system: SNB-75 CNS

Measured: TGI

C[C@@]1(O)C2C3CC4C5C3C1[C@](O)(C42)[C@H]5Br (some centres not stated)
not listed: NCI-H226 lung | SK-OV-3 ovarian | RPMI-8226 leukemia | MALME-3M melanoma | SNB-75 CNS
> 100 µM: all other assays above

S=c1[nH]nc(C23CC4CC(CC(C4)C2)C3)n1-c1ccc(Cl)cc1
42.9 µM: IGROV1 ovarian
33.4 µM: SK-MEL-28 melanoma
95.9 µM: DU-145 prostate
58.6 µM: SF-295 CNS
39.9 µM: SN12C renal
36.8 µM: HT29 colon
52.9 µM: KM12 colon
71.4 µM: UACC-257 melanoma
72.2 µM: A549 NSCLC
63.3 µM: MALME-3M melanoma
45.7 µM: MCF7 breast
30.4 µM: OVCAR-3 ovarian
56.4 µM: MDA-MB-231 breast
73.9 µM: SK-OV-3 ovarian
72.1 µM: SNB-75 CNS
42.6 µM: A498 renal
46 µM: COLO 205 colon
44.7 µM: UO-31 renal
66.9 µM: RPMI-8226 leukemia
17 µM: LOX IMVI melanoma
41.1 µM: MDA-N
38.1 µM: RXF 393 renal
32.9 µM: HCC-2998 colon
55.9 µM: MDA-MB-435
55.8 µM: NCI-H226 lung
56 µM: NCI-H460 lung
19.8 µM: CCRF-CEM leukemia
29.9 µM: BT-549 breast
57.9 µM: NCI-H522 lung
11.5 µM: CAKI-1 renal
49.4 µM: MOLT-4 leukemia
25.3 µM: UACC-62 melanoma
16.4 µM: SR leukemia
27.9 µM: SK-MEL-2 melanoma
59.8 µM: NCI/ADR-RES ovarian
73.5 µM: ACHN renal
14.4 µM: SK-MEL-5 melanoma
23.3 µM: HCT-15 colon
52 µM: T-47D breast
93.7 µM: PC-3 prostate
41.4 µM: M14 melanoma
72.4 µM: TK-10 renal
32.7 µM: HOP-62 NSCLC
31.7 µM: U251 CNS
23.8 µM: HCT-116 colon
8.41 µM: HL-60(TB) leukemia
52.8 µM: HS 578T breast
38 µM: SF-539 CNS
50.1 µM: SF-268 CNS
not listed: HOP-92 NSCLC | EKVX NSCLC
> 100 µM: all other assays above

c1ccc([P+](c2ccccc2)(c2ccccc2)c2ccc([P+](c3ccccc3)(c3ccccc3)c3ccccc3)c3ccccc23)cc1
not listed: OVCAR-4 ovarian | HOP-92 NSCLC | EKVX NSCLC
> 100 µM: all other assays above
